Entries after “also recorded” stand apart in the source; their conditions may differ.
Key:
[1] = system: anaplastic thyroid cancer xenograft (8505C-PNIS-PCMV); experiment: In vivo 99mTc-pertechnetate gamma camera imaging; design: species or system Balb/c nude mice; settings: for 99mTc-pertechnetate uptake (tumor ROI normalized to background), FIG. 16B: 50 mg/kg
Procedure: Female Balb/c nude mice, 5.5-week old with an average weight of 18.9±0.37 g (mean±standard deviation [SD]), were purchased (Hamamatsu, Shizuoka, Japan). The mice were acclimated under specific pathogen-free conditions for one week before starting the experiment, and were maintained at a temperature of 20 to 25° C. and a relative humidity of 40 to 70%. To establish anaplastic thyroid cancer xenograft mouse models, 8505C-PNIS-PCMV s (5×10^6) were mixed with Matrigel (Corning) at a ratio of 1:1 and injected subcutaneously into the right flank region of each mouse.
When the injected 8505C-PNIS-PCMV cells grew to a size of about 50 mm^3, the mice were divided into two groups (n=5): a vehicle group; and a TKI-0266-administered group (50 mg/kg) injected with TKI-0266 by intraperitoneal injection every day for 5 days. To acquire gamma-camera images, 18.5 to 22.2 MBq ^99mTc-pertechnetate was administered to all the mice by intravenous injection. Whole body pinhole gamma camera imaging using a 2-mm pinhole collimator was acquired by infinia II gamma camera (GE Healthcare, USA). During the experiment, the mice were maintained under anesthesia with isoflurane (Forane, ChoongWae Co., Ltd., Korea). In order to estimate the count value, quantitative analysis was performed by quantifying the regions of interest (hereinafter referred to as ROI) in the mouse tumor region. Finally, in order to confirm the pertechnetate absorbed into the tumor, normalization was performed with a background activity ROI of the same size in the mouse head region.

8505C cells = experiment: 131I clonogenic assay; format: cell-based, human
Procedure: 8505C cells (4×10^5) cells were seeded in a six-well plate, and then treated with TKI-0266 and incubated for 24 hours. Next, the medium was removed, and the cells were washed twice with bHBSS, and then incubated in the presence or absence of 50 μCi/ml ^131I (KIRAMS, Korea) containing 30 μM NaI for 7 hours at 37° C. After incubation, the cells were washed twice with bHBSS, re-seeded in a new six-well plate at a density of 1,000 cells/well, and then incubated for 7 days to induce colony formation. On day 7, the medium was removed and the cells were washed twice with PBS. A fixation buffer containing acetic acid:methanol at a ratio of 1:7 was added to the cells and the plate was left to stand at room temperature for 5 minutes to fix colonies. The fixed colonies were stained with 0.05% crystal violet for 1 hour and immersed in tap water to remove crystal violet. The colonies containing 50 or more cells were counted. Percentage inhibition was calculated as the number of colonies formed in the TKI-0266-treated group relative to the vehicle control.

NIS = experiment: Immunohistochemistry of NIS in tumor tissue; format: in vivo, Balb/c nude mice; settings: xenograft tumor sections
From the text: At the end of the experiment, the mice were sacrificed, and the tumors were isolated from the mouse's right flank and fixed overnight with 4% formalin. The isolated tumors were embedded in paraffin, sectioned to a 4-μm thickness, and mounted on slides. The tumor sections on the slides were de-paraffinized and stained with hematoxylin & eosin. For immunohistochemistry, NIS (Thermo Fisher Scientific; diluted at 1:200) and cleaved caspase-3 (Cell signaling; diluted at 1:200) antibodies were used.

Cc1cc2c(N(C)C3CCCCC3)ncnc2s1 [TKI-0266]
99mTc-pertechnetate accumulation in the cancer cells (radioisotope uptake) ([1]; 50 mg/kg every day for 5 days): significantly increased; also recorded: the best
99mTc-pertechnetate uptake (tumor ROI normalized to background), FIG. 16B ([1]; day 0): 0.852±0.210
99mTc-pertechnetate uptake (tumor ROI normalized to background), FIG. 16B ([1]; day 6): 1.21±0.24
colony-forming ability compared to vehicle group (8505C cells; TKI-0266 alone): decreased
colony-forming ability compared to vehicle, 131I-treated and TKI-0266-treated groups (8505C cells; co-treated with 131I and TKI-0266): significantly decreased
expression of NIS-specific protein in tumor tissue (immunohistochemistry) (NIS): high

From patent US12011447B2, “Pharmaceutical composition for treating thyroid cancer comprising tyrosine kinase activity inhibitor as active ingredient” (Kyungpook National University Industry-Academic Cooperation …, priority 2017, dated 2024)
